Columns and labels:
Type in all cases: cell-based
PC12 cells = experiment: CellTox assay, survival of PC12 cells under serum deprivation; details: compound 500 nM, 24 h, after 4 h serum starvation; NGF 100 ng/mL as control (Figure 9)
[1] = system: NIH-3T3 TrkB-expressing cell line; experiment: CellTox Green cytotoxicity assay in NIH-3T3 cells stable transfected with TrkB under serum deprivation; details: compound 1 μM, 24 h, after 24 h serum starvation; BDNF 500 ng/mL as control
In short: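 TrkB-transfected NIH-3T3 cells were serum-starved for 24 h, then exposed 24 h to compounds at 1 μM or BDNF 500 ng/mL as control. Dead cells stained with CellTox Green and total cells with Hoechst 33342, imaged by microscopy. CellTox-positive counts normalised to total cells per image.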

TrkB = biological target: T1, TrkB (Mus musculus, UniProt P15209); experiment: TrkB phosphorylation assay in primary astrocytes (Western blot); details: compound 1 μM, 20 min, after 6 h serum starvation, BDNF 500 ng/mL as control
T1 construct: primary cortical astrocytes from 2-day-old mice (as a natively TrkB-expressing neuronal population); endogenous in cells; host or cells: primary cortical astrocytes from C57B/6 mouse pups (P2)
Procedure: We tested compounds on three cellular systems, primary cortical astrocytes from 2-day-old mice (as a natively TrkB-expressing neuronal population), and NIH-3T3 fibroblasts stable transfected with TrkB and NIH-3T3 naïve cells. Cells were grown with high-glucose DMEM medium supplemented with 10% fetal bovine serum (FBS), 100 μg/mL streptomycin, and 100 units/mL penicillin at 37°C in a humidified 5% CO2 atmosphere. Phosphorylation results presented here are in primary astrocytes, and cell toxicity assay results are in NIH-3T3 stable transfected cells with TrkB.
Cells were plated in 12 well plates, at a density of 100,000 cells per well, with 6 h of serum deprivation carried out on the following day. To assess the effect of compounds on TrkB phosphorylation, 20-min treatments were applied, using either BDNF at 500 ng/mL (Peprotech 450-02) (positive control) or compounds at 1 μM.
Cell lysis for 10 min was carried out on ice using the Pierce IP Lysis Buffer by Thermo Scientific and a phospho-protease inhibitor cocktail by Millipore. After adding loading buffer (5 × Laemni), 25 μg from each protein sample were incubated for 5 min at 95°C and subjected to SDS-PAGE. Proteins were transferred to a nitrocellulose membrane at 350 mA for 2 h. Membrane blocking was performed using 5% bovine serum albumin (BSA) at room temperature for 1 h, before adding the primary antibodies to the blocking solution at 4°C overnight. HRP-conjugated secondary antibodies were used for the detection of chemiluminescence with ECL solution. Primary antibodies: Phospho-TrkB (Tyr816) Millipore # ABN1381, and Anti-TrkB Abcam #ab33655.
Mixed glial cultures were isolated from the cortex of C57B/6 pups at post-natal day 2 (P2). Cells were plated in a medium containing high-glucose DMEM, 200 U/mL penicillin, 200 μg/mL streptomycin, and 10% fetal bovine serum (FBS). When cells reach 100% confluency (7–8 days), the anti-mitotic agent Ara-C was added in the media at a final concentration of 10 μM, for 3 to 4 days to target the highly proliferative microglial cells. Ara-C was removed, and primary astrocytes (97% purity) were cultured at 5% CO2 and 37°C.
Cells were plated at 70–80% confluency. The next day, they were deprived of serum for 6 h and subsequently treated with 500 ng/mL BDNF or 1 μM of compounds for 20 min. Cells were then lysed in Pierce™ IP Lysis Buffer (87788, Thermo Fischer Scientific, Rockford, USA), containing proteases (539138, Calbiochem, Darmstadt, Germany), and phosphatase inhibitors (524629, Calbiochem, Darmstadt, Germany). Lysates were then suspended in an SDS loading buffer and subjected to Western blot against phosphorylated TrkB (1:1,000, ABN1381, Sigma-Aldrich, St. Louis, MO, USA) and total TrkB (1:1,000, 07-225-I, Sigma-Aldrich, St. Louis, MO, USA).

T1 sequence (P15209 32-821): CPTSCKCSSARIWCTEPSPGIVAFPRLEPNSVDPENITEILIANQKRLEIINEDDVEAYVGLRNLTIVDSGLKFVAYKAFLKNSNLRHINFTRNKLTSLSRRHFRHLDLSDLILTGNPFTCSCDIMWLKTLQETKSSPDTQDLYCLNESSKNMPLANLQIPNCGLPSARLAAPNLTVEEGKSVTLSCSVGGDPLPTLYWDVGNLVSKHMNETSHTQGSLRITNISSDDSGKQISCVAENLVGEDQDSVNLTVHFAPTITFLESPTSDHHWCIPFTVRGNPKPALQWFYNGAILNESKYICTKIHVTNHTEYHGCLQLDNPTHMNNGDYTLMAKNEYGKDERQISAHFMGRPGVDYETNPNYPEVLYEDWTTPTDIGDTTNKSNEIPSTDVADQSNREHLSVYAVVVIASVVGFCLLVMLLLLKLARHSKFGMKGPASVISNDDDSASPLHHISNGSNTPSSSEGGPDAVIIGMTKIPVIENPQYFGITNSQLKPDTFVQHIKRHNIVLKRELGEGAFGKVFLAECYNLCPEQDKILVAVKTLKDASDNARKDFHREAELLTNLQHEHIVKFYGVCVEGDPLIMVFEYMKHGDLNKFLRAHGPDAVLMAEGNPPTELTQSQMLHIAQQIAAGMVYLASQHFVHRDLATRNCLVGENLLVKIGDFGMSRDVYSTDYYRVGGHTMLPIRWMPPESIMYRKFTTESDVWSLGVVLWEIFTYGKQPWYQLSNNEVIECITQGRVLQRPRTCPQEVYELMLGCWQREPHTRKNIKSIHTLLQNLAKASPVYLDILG

**Q.** What does the source list for `C[C@]12CC[C@H](O)CC1=CC[C@@H]1[C@@H]2CC[C@@]2(C)[C@H]1CC[C@@]21CC=C(Cn2cc(Cc3ccccc3)nn2)CO1` [ENT-A055, (3S,17R)-5′-[(4-benzyl-1H-1,2,3-triazol-1-yl)methyl]-3′,6′-dihydrospiro[5-androstene-17,2′-pyran]-3-ol]?
**A.** protection of PC12 cells from serum deprivation-induced cell death (CellTox) (PC12 cells): without showing any antiapoptotic activity in PC12 cells; protection of NIH-3T3-TrkB cells from serum deprivation-induced cell death (CellTox) [1]: significantly reduce cell death levels compared to the serum-free control, comparable to the BDNF action; phosphorylation levels of the TrkB receptor (TrkB): successfully increased phosphorylation levels of the TrkB receptor compared to the untreated control
